Data published in article PMC10892423 (Pharmaceutics, 2024).
Converted amounts (≈) assume the structure as drawn. Blank lines part the entries; values can stand above or below the compound they belong to.

Legend:
[1] = target: T1, NDM-1 (Klebsiella pneumoniae, UniProt C7C422); test: β-lactamase inhibition, imipenem hydrolysis; assay type: biochemical; details: imipenem substrate; read-out: β-Lactamases, IC50 NDM-1
T1 construct: purchased RayBiotech, Inc. 230-00554
Text: (§1) Recombinant AmpC from Escherichia coli was produced according to a previously reported protocol. KPC-2 and NDM-1 […] were purchased from LifeSpan Biosciences, Inc. (Lynnwood, WA, USA) (LS-G26598) and RayBiotech, Inc. (Peachtree Corners, GA, USA) (230-00554), respectively. Genes encoding OXA-48 (residues 23–265) and VIM-2 (residues 27–266) were custom-synthesized (Bioneer Inc., Seoul, Republic of Korea) and expressed as previously described. The β-lactamase inhibitory activity of the title compounds was then determined according to the previously reported methods. Briefly, equal volumes (100 μL) of the title compounds (70–0.1 μM in PBS) and diluted enzyme stock were mixed (final concentration 2% of DMSO in 200 μL) in 96-well plates, which were then incubated at 37 °C for 20 min. The incubated mixture was added to each well containing substrates (nitrocefin for AmpC, KPC-2, OXA-48, and VIM-2; and imipenem for NDM-1) of final concentrations of 70 μM for nitrocefin and 100 μM for imipenem. Substrate hydrolysis was monitored at 486 nm (nitrocefin) or 300 nm (imipenem) for 15 min, using a Cytation 5 imaging multimode reader (BioTek Instruments Inc., Winooski, VT, USA). At the plateau level of hydrolysis, the corresponding rates of hydrolysis were compared to those obtained without inhibitors (100%) to determine the percentage of enzyme inhibition at each concentration of the title compounds. The IC50 values of the compounds were derived from sigmoidal dose–response curves, using GraphPad Prism 5 (GraphPad Software, Boston, MA, USA).

[2] = target: T2, AmpC (Escherichia coli, UniProt P00811); test: β-lactamase inhibition, nitrocefin hydrolysis; assay type: biochemical
T2 construct: made in house
Text: as §1

[3] = target: T3, OXA-48 (Klebsiella pneumoniae, UniProt Q6XEC0); test: β-lactamase inhibition, nitrocefin hydrolysis; assay type: biochemical; details: nitrocefin substrate; read-out: β-Lactamases, IC50 OXA-48
T3 construct: Genes encoding OXA-48 (residues 23–265) and VIM-2 (residues 27–266) were custom-synthesized; made in house
Text: as §1

[4] = target: T4, KPC-2 (Klebsiella pneumoniae, UniProt Q9F663); test: β-lactamase inhibition, nitrocefin hydrolysis; assay type: biochemical; details: nitrocefin substrate; read-out: β-Lactamases, IC50 KPC-2
T4 construct: purchased LifeSpan Biosciences, Inc. LS-G26598
Text: as §1

[5] = target: T5, VIM-2 (Escherichia coli, UniProt Q5U7L7); test: β-lactamase inhibition, nitrocefin hydrolysis; assay type: biochemical; details: nitrocefin substrate; read-out: β-Lactamases, IC50 VIM-2
T5 construct: Genes encoding OXA-48 (residues 23–265) and VIM-2 (residues 27–266) were custom-synthesized; made in house
Text: as §1

[6] = test system: MBL-producing P. aeruginosa clinical isolates; test: MIC by broth microdilution (CLSI); assay type: cell-based, Pseudomonas aeruginosa; details: for MIC: Pseudomonas aeruginosa
Description: The DMSO stock solutions of the test compounds were serially diluted to the desired concentrations in CAMHB. Then, 10 μL of the bacterial suspension (5 × 10^5 colony forming units (CFU)/mL) was combined with 200 μL of DMSO stock solutions of the test compounds in 96-well microtiter plates (1% DMSO, final). After the incubation of the plate at 37 °C for 24 h, bacterial growth was visibly evaluated by monitoring the turbidity of the resulting suspension, and the MICs were determined as the lowest concentrations of the test compounds that inhibited the visible growth of the bacteria.

T4 sequence (Q9F663 25-293, looked up): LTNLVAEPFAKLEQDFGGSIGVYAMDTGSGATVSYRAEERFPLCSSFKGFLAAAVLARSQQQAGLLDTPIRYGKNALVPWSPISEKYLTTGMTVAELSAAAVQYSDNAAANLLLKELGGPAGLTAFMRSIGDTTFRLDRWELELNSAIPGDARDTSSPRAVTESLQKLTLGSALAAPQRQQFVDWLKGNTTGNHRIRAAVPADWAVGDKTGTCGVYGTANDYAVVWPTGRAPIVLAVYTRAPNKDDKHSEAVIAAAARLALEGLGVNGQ
T1 sequence (C7C422 29-270, looked up, species assumed): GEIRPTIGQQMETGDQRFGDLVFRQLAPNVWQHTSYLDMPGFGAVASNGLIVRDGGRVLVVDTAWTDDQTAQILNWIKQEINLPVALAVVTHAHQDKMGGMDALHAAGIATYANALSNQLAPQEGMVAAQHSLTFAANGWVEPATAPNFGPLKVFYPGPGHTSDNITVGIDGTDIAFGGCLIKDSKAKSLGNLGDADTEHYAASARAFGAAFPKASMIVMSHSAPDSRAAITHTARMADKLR
T2 sequence (P00811 20-377): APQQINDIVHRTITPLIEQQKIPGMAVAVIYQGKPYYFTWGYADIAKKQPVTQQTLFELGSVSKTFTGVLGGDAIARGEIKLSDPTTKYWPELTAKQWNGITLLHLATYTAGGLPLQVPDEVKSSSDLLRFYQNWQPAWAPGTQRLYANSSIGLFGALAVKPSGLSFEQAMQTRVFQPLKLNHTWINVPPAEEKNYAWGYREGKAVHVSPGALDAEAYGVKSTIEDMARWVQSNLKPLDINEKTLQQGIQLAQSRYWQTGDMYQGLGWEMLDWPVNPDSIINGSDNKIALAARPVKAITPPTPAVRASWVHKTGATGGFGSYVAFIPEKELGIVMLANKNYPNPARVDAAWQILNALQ
T3 sequence (Q6XEC0 23-265 limits assumed): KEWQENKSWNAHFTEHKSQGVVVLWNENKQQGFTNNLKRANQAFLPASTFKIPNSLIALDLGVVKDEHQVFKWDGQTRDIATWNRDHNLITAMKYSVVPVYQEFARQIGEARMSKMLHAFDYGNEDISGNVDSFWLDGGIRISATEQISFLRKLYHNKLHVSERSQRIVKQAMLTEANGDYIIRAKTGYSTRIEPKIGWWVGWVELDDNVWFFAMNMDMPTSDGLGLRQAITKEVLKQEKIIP

Compound: O=c1c(OCCOCCOCCO)c(-c2ccc(F)c(F)c2)oc2cc(O)cc(O)c12 [Compound 10]
IC50 [1]: > 50 µM
IC50 [2]: > 50 µM
IC50 [3]: > 100 µM
IC50 [4]: > 50 µM
IC50 [5]: > 100 µM

Compound: NCCOCCOc1c(-c2ccc(F)c(F)c2)oc2cc(O)cc(O)c2c1=O [Compound 11]
IC50 [1]: > 50 µM
IC50 [2]: > 50 µM
IC50 [3]: > 100 µM
IC50 [4]: > 50 µM
IC50 [5]: > 100 µM

Compound: O=c1c(OCCc2cccs2)c(-c2ccc(F)c(F)c2)oc2cc(O)cc(O)c12 [Compound 12]
IC50 [1]: > 50 µM
IC50 [2]: > 50 µM
IC50 [3]: > 100 µM
IC50 [4]: > 50 µM
IC50 [5]: > 100 µM

Compound: CN(C)CCOc1c(-c2ccc(F)c(F)c2)oc2cc(O)cc(O)c2c1=O [Compound 13]
IC50 [1]: > 50 µM
IC50 [2]: > 50 µM
IC50 [3]: > 100 µM
IC50 [4]: > 50 µM
IC50 [5]: > 100 µM

MIC ([6]; PA-001, blaNDM): > 16 µg/mL
MIC ([6]; PA-002, blaIMP): > 16 µg/mL
MIC ([6]; PA-007, blaNDM): 16 µg/mL (≈ 33.3 µM)
MIC ([6]; PA-008, blaNDM): > 16 µg/mL
MIC ([6]; PA-011, blaNDM): > 16 µg/mL
MIC ([6]; PA-012, blaNDM): > 16 µg/mL
MIC ([6]; PA-016, blaIMP): > 16 µg/mL
MIC ([6]; PA-017, blaNDM): > 16 µg/mL
MIC ([6]; PA-019, blaNDM): > 16 µg/mL
MIC ([6]; PA-020, blaNDM): 16 µg/mL (≈ 33.3 µM)
MIC ([6]; PA-023, blaNDM): > 16 µg/mL
MIC ([6]; PA-025, blaNDM): > 16 µg/mL
MIC ([6]; PA-027, blaIMP): > 16 µg/mL
MIC ([6]; PA-028, blaNDM): > 16 µg/mL
MIC ([6]; PA-029, blaIMP): > 16 µg/mL
MIC ([6]; PA-030, blaIMP): > 16 µg/mL
MIC ([6]; PA-034, blaNDM): > 16 µg/mL
MIC ([6]; PA-036, blaNDM): > 16 µg/mL
MIC ([6]; PA-038, blaNDM): > 16 µg/mL
MIC ([6]; PA-039, blaNDM): > 16 µg/mL
MIC ([6]; PA-044, blaNDM): > 16 µg/mL
Compound: CO/N=C(\C(=O)N[C@@H]1C(=O)N2C(C(=O)[O-])=C(C[N+]3(C)CCCC3)CS[C@H]12)c1csc(N)n1 [FEP, cefepime]

MIC ([6]; PA-001, blaNDM): > 8 µg/mL
MIC ([6]; PA-002, blaIMP): > 8 µg/mL
MIC ([6]; PA-007, blaNDM): > 8 µg/mL
MIC ([6]; PA-008, blaNDM): > 8 µg/mL
MIC ([6]; PA-011, blaNDM): > 8 µg/mL
MIC ([6]; PA-012, blaNDM): 8 µg/mL (≈ 16.8 µM)
MIC ([6]; PA-016, blaIMP): > 8 µg/mL
MIC ([6]; PA-017, blaNDM): > 8 µg/mL
MIC ([6]; PA-019, blaNDM): > 8 µg/mL
MIC ([6]; PA-020, blaNDM): > 8 µg/mL
MIC ([6]; PA-023, blaNDM): > 8 µg/mL
MIC ([6]; PA-025, blaNDM): > 8 µg/mL
MIC ([6]; PA-027, blaIMP): > 8 µg/mL
MIC ([6]; PA-028, blaNDM): > 8 µg/mL
MIC ([6]; PA-029, blaIMP): > 8 µg/mL
MIC ([6]; PA-030, blaIMP): > 8 µg/mL
MIC ([6]; PA-034, blaNDM): > 8 µg/mL
MIC ([6]; PA-036, blaNDM): > 8 µg/mL
MIC ([6]; PA-038, blaNDM): > 8 µg/mL
MIC ([6]; PA-039, blaNDM): ≤ 2 µg/mL
MIC ([6]; PA-044, blaNDM): > 8 µg/mL
Compound: CNC(C)C1CCC(N)C(OC2C(N)CC(N)C(OC3OCC(C)(O)C(NC)C3O)C2O)O1 (centres unmarked) [GEN, gentamicin]

MIC ([6]; PA-001, blaNDM): > 8 µg/mL
MIC ([6]; PA-002, blaIMP): > 8 µg/mL
MIC ([6]; PA-007, blaNDM): > 8 µg/mL
MIC ([6]; PA-008, blaNDM): > 8 µg/mL
MIC ([6]; PA-011, blaNDM): > 8 µg/mL
MIC ([6]; PA-012, blaNDM): > 8 µg/mL
MIC ([6]; PA-016, blaIMP): > 8 µg/mL
MIC ([6]; PA-017, blaNDM): > 8 µg/mL
MIC ([6]; PA-019, blaNDM): > 8 µg/mL
MIC ([6]; PA-020, blaNDM): > 8 µg/mL
MIC ([6]; PA-023, blaNDM): > 8 µg/mL
MIC ([6]; PA-025, blaNDM): > 8 µg/mL
MIC ([6]; PA-027, blaIMP): > 8 µg/mL
MIC ([6]; PA-028, blaNDM): > 8 µg/mL
MIC ([6]; PA-029, blaIMP): > 8 µg/mL
MIC ([6]; PA-030, blaIMP): > 8 µg/mL
MIC ([6]; PA-034, blaNDM): > 8 µg/mL
MIC ([6]; PA-036, blaNDM): > 8 µg/mL
MIC ([6]; PA-038, blaNDM): > 8 µg/mL
MIC ([6]; PA-039, blaNDM): > 8 µg/mL
MIC ([6]; PA-044, blaNDM): > 8 µg/mL
Compound: C[C@@H](O)[C@H]1C(=O)N2C(C(=O)O)=C(SCCN=CN)C[C@H]12 [IPM, imipenem]

MIC ([6]; PA-001, blaNDM): > 32 µg/mL
MIC ([6]; PA-002, blaIMP): > 32 µg/mL
MIC ([6]; PA-007, blaNDM): > 32 µg/mL
MIC ([6]; PA-008, blaNDM): > 32 µg/mL
MIC ([6]; PA-011, blaNDM): > 32 µg/mL
MIC ([6]; PA-012, blaNDM): > 32 µg/mL
MIC ([6]; PA-016, blaIMP): > 32 µg/mL
MIC ([6]; PA-017, blaNDM): > 32 µg/mL
MIC ([6]; PA-019, blaNDM): > 32 µg/mL
MIC ([6]; PA-020, blaNDM): > 32 µg/mL
MIC ([6]; PA-023, blaNDM): > 32 µg/mL
MIC ([6]; PA-025, blaNDM): > 32 µg/mL
MIC ([6]; PA-027, blaIMP): > 32 µg/mL
MIC ([6]; PA-028, blaNDM): > 32 µg/mL
MIC ([6]; PA-029, blaIMP): > 32 µg/mL
MIC ([6]; PA-030, blaIMP): > 32 µg/mL
MIC ([6]; PA-034, blaNDM): > 32 µg/mL
MIC ([6]; PA-036, blaNDM): > 32 µg/mL
MIC ([6]; PA-038, blaNDM): > 32 µg/mL
MIC ([6]; PA-039, blaNDM): > 32 µg/mL
MIC ([6]; PA-044, blaNDM): > 32 µg/mL
Compound: C[C@@H](O)[C@H]1C(=O)N2C(C(=O)O)=C(S[C@@H]3CN[C@H](C(=O)N(C)C)C3)[C@H](C)[C@H]12 [MEM, meropenem]

Compound: colistin [CST]
MIC Value ([6]; PA-001, blaNDM): ≤1 µg/mL
MIC Value ([6]; PA-002, blaIMP): ≤1 µg/mL
MIC Value ([6]; PA-007, blaNDM): ≤1 µg/mL
MIC Value ([6]; PA-008, blaNDM): ≤1 µg/mL
MIC Value ([6]; PA-011, blaNDM): ≤1 µg/mL
MIC Value ([6]; PA-012, blaNDM): ≤1 µg/mL
MIC Value ([6]; PA-016, blaIMP): ≤1 µg/mL
MIC Value ([6]; PA-017, blaNDM): ≤1 µg/mL
MIC Value ([6]; PA-019, blaNDM): ≤1 µg/mL
MIC Value ([6]; PA-020, blaNDM): ≤1 µg/mL
MIC Value ([6]; PA-023, blaNDM): ≤1 µg/mL
MIC Value ([6]; PA-025, blaNDM): ≤1 µg/mL
MIC Value ([6]; PA-027, blaIMP): ≤1 µg/mL
MIC Value ([6]; PA-028, blaNDM): ≤1 µg/mL
MIC Value ([6]; PA-029, blaIMP): ≤1 µg/mL
MIC Value ([6]; PA-030, blaIMP): ≤1 µg/mL
MIC Value ([6]; PA-034, blaNDM): ≤1 µg/mL
MIC Value ([6]; PA-036, blaNDM): ≤1 µg/mL
MIC Value ([6]; PA-038, blaNDM): ≤1 µg/mL
MIC Value ([6]; PA-039, blaNDM): ≤1 µg/mL
MIC Value ([6]; PA-044, blaNDM): ≤1 µg/mL
